Assay results from paper PMC9611471 (Pharmaceutics, 2022).
“Also recorded” adds a separate entry of the source.

What was measured:
[1] = test system: A549 cell-induced tumor xenograft; experiment: A549 tumor xenograft in BALB/c nude mice; type: in vivo; conditions: vs control group
Method: Five-week-old BALB/c-nu/nu male mice were purchased from Orient Bio Inc. (Seongnam, Gyeonggi-do, Korea). The mice were housed in a climate-controlled room (22 ± 2 °C, 50 ± 10% relative humidity) and specific pathogen-free conditions with a 12 h light/dark cycle and adapted for a week with free access to food and water. Cages, bedding, and drinking water were autoclaved and changed regularly. The cancer cell suspension {3 × 10^7 cells/ 150 μL phosphate-buffered saline (PBS)} was inoculated subcutaneously into the right flank. Measurable tumors were found 7–8 days after cell inoculation, and tumors grew in 90% of the injection site two weeks later. The mice were randomly divided into test groups (12 mice per group) when the tumor volume reached 100 mm^2 about two weeks after the inoculation (experimental day 0). The control group (vehicle-treated group) and Compound 4 (5 mg/kg) were administered i.p. 3 times a week. The formulation of Compound 4 was prepared in a mixture of 10% DMSO + 90% PBS. The tumor growth rate and body weights in each of the two groups were measured every three days using a Vernier caliper and a digital weighing balance, respectively. Tumor volume was calculated as l × b^2 × 0.52, where l is the length and b is the width. Four weeks after treatment, blood samples were drawn from the orbital sinus under anesthesia, the mice were sacrificed by cervical dislocation, and the tumors were dissected for further examination.
The paraffin-embedded tumor specimens were deparaffinized with xylene and a series of different alcohol concentrations, rehydrated, and antigen retrieval was carried out with sodium citrate buffer (0.05 M with PH 6). After blocking with 5% BSA, the slides were incubated overnight at 4 °C with KI67 (Cell Signaling Technology, Danvers, MA, USA), Caspase-3 (Abcam, Cambridge, UK), and S1P antibodies (Echelon Biosciences inc, Salt Lake City, UT). The slides were washed with 1× TBST (TBST with PH 8.4) plus 0.5 percent Triton X-100 (Sigma-Aldrich, St. Louis, MO, USA), then secondary antibodies were added in 1:500 ratios (Invitrogen-Alexa Fluor plus 555, 488, and Alexa FluorTM546), and nuclear staining was performed with Hoechst (Invitrogen, Carlsbad, CA, USA), mounted with a flurosave reagent (EMD Millipore Crop, Billerica, MA, USA). Stain sections were observed and photographed using a confocal microscope (Carl-Zeiss-LSM710NLO and LSM780NLO), and results were analyzed using the Carl-Zeiss ZEN2 software and quantification was done by using the ImageJ software, respectively.

A549 cells [2] = experiment: Colony formation assay; type: cell-based, human; conditions: 5 and 10 μM
Method: A549 cells (1 × 10^3 cells/well) were seeded into six-well plates and then each compound was treated at 5 and 10 μM for 12 h. The medium was changed every two days, and the cells were cultured in a fresh medium for 10 days. The obtained colonies were fixed with 25% glutaraldehyde for 20 min and then stained with 0.1% crystal violet for 15 min.

A549 cells [3] = experiment: Annexin V-FITC apoptosis analysis; type: cell-based, human; conditions: 24 h
Method: A549 cells (1 × 10^5 cells) were seeded in into a 12-well plate. […] After harvesting the cells, the binding buffer was added and then incubated with annexin-V-FITC and PI at room temperature for 15 min. The stained cells were analyzed with MACS Quant Analyzer 10 Flow Cytometer (Miltenyi Biotec, Bergisch Gladbach, Germany) within 1 h.

A549 cells [4] = experiment: Western blotting of apoptosis-related proteins; type: cell-based, human; conditions: 5 and 10 μM, 24 h
Method: Western blotting measured changes in apoptosis-related proteins (PARP, BAX, BCL-2, Caspase-3). A549 cells (1 × 10^6 cells per well in 6-well plates) were incubated for 24 h. Cells were treated with concentrations of the compounds and incubated for 24 h. Then, cells were dissolved on ice for two hours with a lysis buffer containing a mixture of protease and phosphatase inhibitors. The lysate was centrifuged at 12,000× g for 15 min at 4 °C, and the supernatant was collected. Protein concentrations were measured using a bicinchoninic acid protein assay kit. Total protein was separated by 8–10% sodium dodecyl sulfate–polyacrylamide gel electrophoresis (SDS-PAGE) and transferred onto polyvinylidene fluoride (PVDF) membranes. After being blocked with 5% skim milk, membranes were probed overnight at 4 °C with primary antibodies against SK1, SK2, PARP, BAX, Bcl-2, Caspase-3, and β-actin. Then, the membranes were incubated with subsequent secondary antibodies at room temperature. Then, the protein expressions were measured by Amersham Imager 680 (GE Healthcare, Leiden, WZ, The Netherlands).

[5] = In vitro metabolic stability, mouse liver microsomes; type: in vitro ADME; conditions: pooled liver microsomes, NADPH, 37 °C, 0 and 30 min
SK1 = SK1 (Homo sapiens, UniProt Q9NYA1); experiment: SK1 activity assay (Adapta screening system)
A549 cells [6] = experiment: Cytotoxicity after SK1/SK2 siRNA transfection; type: cell-based, human; conditions: A549 cells transfected with siSK1, siSK2; 24 h
Method: Control small interfering RNA (siControl) was obtained from Bioneer (Daejeon, Korea), while SK1 (sc-44114) and SK2 (sc-39225) siRNA (siSK1 and siSK2) were purchased from Santa Cruz Biotechnology (Dallas, TX, USA). Cells were transfected using Lipofectamine RNAiMAX Reagent (Invitrogen, Carlsbad, CA, USA) according to the manufacturer’s instructions. Transfection efficiency was monitored by Western blot. After 24 h of infection, cytotoxicity was measured using infected cells.

[7] = In vitro metabolic stability, rat liver microsomes; type: in vitro ADME; conditions: pooled liver microsomes, NADPH, 37 °C, 0 and 30 min
A549 cells [8] = experiment: Levels of sphingosine, ceramide and S1P (ELISA); type: cell-based, human; conditions: 5 and 10 μM
Method: After seeding 1 × 10^6 cells/well into a 6-well plate and incubating for 24 h, the synthetic compounds were treated by concentration. Then, cells were collected and freezing and thawing were repeated three to five times, and centrifuged supernatant was used for testing. The levels of sphingosine, ceramide, and S1P were measured according to the proposed manual using each ELISA kit (Mybiosource, Inc., San Diego, CA, USA).

[9] = In vitro metabolic stability, dog liver microsomes; type: in vitro ADME; conditions: pooled liver microsomes, NADPH, 37 °C, 0 and 30 min
A549 and H1299 cells = experiment: Cell proliferation / viability assay (EZ-CYTOX)
[10] = immunohistochemistry, 5 mg/kg i.p.

SK1, sequence (Q9NYA1 whole entry): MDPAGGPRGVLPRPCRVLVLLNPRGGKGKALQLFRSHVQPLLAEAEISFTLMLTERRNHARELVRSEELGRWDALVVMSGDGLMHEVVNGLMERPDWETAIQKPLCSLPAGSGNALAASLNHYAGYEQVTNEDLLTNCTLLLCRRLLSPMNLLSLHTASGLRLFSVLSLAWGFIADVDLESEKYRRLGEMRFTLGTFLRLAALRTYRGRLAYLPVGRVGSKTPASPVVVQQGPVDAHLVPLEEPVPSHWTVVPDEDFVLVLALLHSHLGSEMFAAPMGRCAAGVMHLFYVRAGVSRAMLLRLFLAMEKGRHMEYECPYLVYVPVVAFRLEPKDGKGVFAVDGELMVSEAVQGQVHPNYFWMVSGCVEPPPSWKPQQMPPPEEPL

With `Cc1cc(CN(Cc2cc(C)cc(CS(=O)(=O)c3ccccc3)c2)c2ccc(CCN3CCC(CO)CC3)cc2)cc(CS(=O)(=O)c2ccccc2)c1` [Compound 4, (1-(4-(Bis(3-methyl-5-((phenylsulfonyl)methyl)benzyl)amino)phenethyl)piperidin-4-yl)methanol] the tumor volume ([1]; 5 mg/kg i.p. 3 times a week, 29 days) was “statistically significant inhibitory effect on the tumor volume”, the tumor weight ([1]; 5 mg/kg i.p. 3 times a week, day 29) was “significant decrease in the tumor weight” and the weight of animals ([1]; 5 mg/kg i.p. 3 times a week) was “no difference in the weight”. For the same molecule, the “KI67 level in tumor sections (proliferation marker)” value [1, 10] was “decrease in the level of KI67”, the “S1P levels in the tumor section” value [1, 10] was “decreased” and the “caspase-3 level in tumor sections (apoptosis marker)” value [1, 10] was “increased”. The colony formation (A549 cells [2]) was “reduce colony formation in a concentration-dependent manner”, the “apoptotic effect (annexin-V)” value (A549 cells [3]; 5 μM) was “significant effect” and the “apoptotic effect (annexin-V)” value (A549 cells [3]; 10 μM) was “significantly higher apoptotic effect compared to PF-543”. For the same molecule, the “levels of PARP, Caspase-3 and cleaved PARP” value (A549 cells [4]) was “levels of PARP and Caspase-3 were decreased and cleavage of PARP was increased”, the “MS MLM” value [5] was 38.5 and the “selectivity for SK1” value (SK1; SK1 vs SK2, compared to PF-543) was “lower selectivity for SK1 compared to PF-543”. For the same molecule, the inhibition at 10 µM (SK1; read-out: SK1 inhibitory efficacy) was 31%, the “dependence of cytotoxic efficacy on SK1/SK2 (siRNA knockdown)” value (A549 cells [6]) was “more dependent on SK1, although SK2 is also partially involved” and the “MS RLM” value [7] was 22.9. For the same molecule, the S1P levels (A549 cells [8]) was “reduced; also recorded: inhibited S1P at a level similar to that of PF-543”, the ceramide levels (A549 cells [8]) was “increased” and the sphingosine levels (A549 cells [8]) was “slightly lower sphingosine expression than PF-543”. For the same molecule, the “MS DLM” value [9] was 26.1, the “cytotoxic effects compared with FTY720” value (A549 and H1299 cells; 20 and 40 μM, A549 and H1299 cells) was “cytotoxic effects similar to those of FTY720” and the IC50 (A549 and H1299 cells; Homo sapiens, 24 h, read-out: IC50 (cytotoxic effect)) was 7.75 µM.
